One block for each compound: values may come before it.
Assays:
[1] = Rat Early Pharmacokinetic (EPK) study; type: in vivo; details: PO, 30 mg/kg, formulation 10% DMSO/90% CMC; for Tmax: male, Sprague-Dawley, blood
Description: Male Sprague-Dawley rats were dosed via oral (PO) gavage in the detailed formulation. Blood samples were collected from the animals at 6 timepoints out to 4 hours post-dose. Pharmacokinetic analysis was performed on the LC-MS/MS measured concentrations for each timepoint of each compound.

[2] = system: Rat SNL tactile allodynia; experiment: L5/L6 spinal nerve ligation (SNL) Chung pain model, tactile allodynia (von Frey); type: in vivo
Source text: The Spinal Nerve Ligation is an animal model representing peripheral nerve injury generating a neuropathic pain syndrome. In this model experimental animals develop the clinical symptoms of tactile allodynia and hyperalgesia. L5/L6 Spinal nerve ligation (SNL) injury was induced using the procedure of Kim and Chung (Kim et al., Pain 50:355-363 (1992)) in male Sprague-Dawley rats (Harlan; Indianapolis, Ind.) weighing 200 to 250 grams.
Anaesthesia was induced with 2% isofluorane in O2 at 2 L/min and maintained with 0.5% isofluorane in O2. Rats were then shaved and aseptically prepared for surgeries. A 2 cm paraspinal incision was made at the level of L4-S2. L4/L5 was exposed by removing the transverse process above the nerves with a small rongeur. The L5 spinal nerve is the larger of the two visible nerves below the transverse process and lies closest to the spine. The L6 spinal nerve is located beneath the corner of the slope bone. A home-made glass Chung rod was used to hook L5 or L6 and a pre-made slip knot of 4.0 silk suture was placed on the tip of the rod just above the nerve and pulled underneath to allow for the tight ligation. The L5 and L6 spinal nerves were tightly ligated distal to the dorsal root ganglion. The incision was closed, and the animals were allowed to recover for 5 days.
Sham control rats underwent the same operation and handling as the experimental animals, but without SNL.
Prior to initiating drug delivery, baseline behavioural testing data is obtained. At selected times after infusion of the Test or Control Article behavioural data can then be collected again.
The assessment of tactile allodynia consisted of measuring the withdrawal threshold of the paw ipsilateral to the site of nerve injury in response to probing with a series of calibrated von Frey filaments (innocuous stimuli). Animals were acclimated to the suspended wire-mesh cages for 30 min before testing. Each von Frey filament was applied perpendicularly to the plantar surface of the ligated paw of rats for 5 sec. A positive response was indicated by a sharp withdrawal of the paw. For rats, the first testing filament is 4.31. Measurements were taken before and after administration of test articles. […] The protocol was repeated until three changes in behaviour were determined (“up and down” method) (Chaplan et al., J. Neurosci. Methods 53:55-63 (1994)). The 50% paw withdrawal threshold was determined as (10^[Xf+kδ])/10,000, where Xf=the value of the last von Frey filament employed, k=Dixon value for the positive/negative pattern, and S=the logarithmic difference between stimuli. The cut-off values for rats were no less than 0.2 g and no higher than 15 g (5.18 filament); for mice no less than 0.03 g and no higher than 2.34 g (4.56 filament). A significant drop of the paw withdrawal threshold compared to the pre-treatment baseline is considered tactile allodynia. […]

[3] = biological target: T1, NaV1.7 channels expressed in HEK cells (Homo sapiens, UniProt Q15858); experiment: NaV1.7 voltage-clamp electrophysiological assay (enhancement of slow inactivation); type: cell-based
T1 construct: expressed in transfected cells; host or cells: HEK cells
T1 sequence (Q15858 whole entry): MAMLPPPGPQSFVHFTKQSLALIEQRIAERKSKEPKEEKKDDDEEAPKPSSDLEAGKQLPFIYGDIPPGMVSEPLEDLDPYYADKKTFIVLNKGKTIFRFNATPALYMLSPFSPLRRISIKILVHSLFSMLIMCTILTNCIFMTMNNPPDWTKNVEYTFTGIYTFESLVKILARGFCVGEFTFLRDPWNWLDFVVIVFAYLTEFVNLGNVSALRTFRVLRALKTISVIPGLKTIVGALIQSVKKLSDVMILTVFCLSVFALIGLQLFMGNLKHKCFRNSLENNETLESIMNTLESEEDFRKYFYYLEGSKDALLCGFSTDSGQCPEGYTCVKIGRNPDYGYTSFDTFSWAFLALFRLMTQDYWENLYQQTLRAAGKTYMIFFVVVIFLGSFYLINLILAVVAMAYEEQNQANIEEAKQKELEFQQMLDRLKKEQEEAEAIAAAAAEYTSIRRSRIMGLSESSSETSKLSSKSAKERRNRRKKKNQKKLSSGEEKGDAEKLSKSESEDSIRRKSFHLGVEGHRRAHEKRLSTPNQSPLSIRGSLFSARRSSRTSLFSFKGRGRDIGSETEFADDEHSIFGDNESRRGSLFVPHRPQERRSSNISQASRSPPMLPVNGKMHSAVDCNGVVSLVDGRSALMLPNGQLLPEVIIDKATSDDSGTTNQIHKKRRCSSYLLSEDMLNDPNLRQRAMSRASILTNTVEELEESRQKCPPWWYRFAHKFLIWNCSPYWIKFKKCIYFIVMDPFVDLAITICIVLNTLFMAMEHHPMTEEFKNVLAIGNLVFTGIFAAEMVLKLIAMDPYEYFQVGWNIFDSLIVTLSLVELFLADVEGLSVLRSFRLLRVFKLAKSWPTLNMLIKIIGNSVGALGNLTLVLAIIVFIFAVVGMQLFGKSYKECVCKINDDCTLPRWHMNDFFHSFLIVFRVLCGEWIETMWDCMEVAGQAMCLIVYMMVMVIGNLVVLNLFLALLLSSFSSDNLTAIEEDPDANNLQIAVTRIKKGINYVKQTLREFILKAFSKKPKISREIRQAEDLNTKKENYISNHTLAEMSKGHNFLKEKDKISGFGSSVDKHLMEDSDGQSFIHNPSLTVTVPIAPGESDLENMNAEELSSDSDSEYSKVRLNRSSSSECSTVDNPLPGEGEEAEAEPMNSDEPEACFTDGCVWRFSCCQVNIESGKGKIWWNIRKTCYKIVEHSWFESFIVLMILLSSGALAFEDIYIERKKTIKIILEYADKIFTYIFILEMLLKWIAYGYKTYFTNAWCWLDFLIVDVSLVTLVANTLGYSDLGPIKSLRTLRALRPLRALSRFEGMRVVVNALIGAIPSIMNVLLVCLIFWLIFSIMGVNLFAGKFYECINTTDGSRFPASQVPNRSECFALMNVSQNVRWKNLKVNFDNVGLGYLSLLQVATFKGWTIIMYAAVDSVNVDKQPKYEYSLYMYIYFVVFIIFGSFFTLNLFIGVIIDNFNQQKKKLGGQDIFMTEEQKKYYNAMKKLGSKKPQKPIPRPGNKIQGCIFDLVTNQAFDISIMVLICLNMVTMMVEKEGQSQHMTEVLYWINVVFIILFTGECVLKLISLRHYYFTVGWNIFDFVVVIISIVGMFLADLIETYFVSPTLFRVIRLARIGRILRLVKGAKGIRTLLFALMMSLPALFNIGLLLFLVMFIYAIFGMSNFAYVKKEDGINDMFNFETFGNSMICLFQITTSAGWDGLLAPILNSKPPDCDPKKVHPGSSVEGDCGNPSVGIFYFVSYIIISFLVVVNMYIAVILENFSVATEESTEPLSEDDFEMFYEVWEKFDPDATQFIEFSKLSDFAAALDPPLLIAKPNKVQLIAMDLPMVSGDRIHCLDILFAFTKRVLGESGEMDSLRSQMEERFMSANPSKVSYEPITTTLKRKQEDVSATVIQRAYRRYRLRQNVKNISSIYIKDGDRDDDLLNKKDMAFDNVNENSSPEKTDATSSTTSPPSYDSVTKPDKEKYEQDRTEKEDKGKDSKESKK
Description: To examine the effects of compounds on enhancement of slow inactivation of NaV1.7 and NaV1.8 channels expressed in HEK cells the culture media was replaced with an extracellular solution containing (in mM): 137 NaCl, 4 KCl, 1.8 CaCl2, 1 MgCl2, 10 HEPES, 10 glucose, pH adjusted to 7.4 with NaOH. The intracellular solution contained (in mM): 130 KCl, 1 MgCl2, 5 EGTA, 10 HEPES, 5 K2ATP, adjusted to pH 7.3 with KOH. Whole-cell recordings, preparation and application of test compounds were performed in a similar manner to the CaV3.2 electrophysiological assays. Voltage protocols were applied to quantify the effects of test compounds to enhance slow inactivation for NaV1.7 and NaV1.8.

[4] = system: Lamina I/II spinal cord neurons; experiment: Lamina assay: current-clamp recordings on lamina I/II spinal cord neurons; type: cell-based, rat; details: Lamina I and II, tonic firing neurons, current-clamp
Source text: Male Wistar rats (P6 to P9 for voltage-clamp and P15 to P18 for current-clamp recordings) were anaesthetized through intraperitoneal injection of Inactin (Sigma). The spinal cord was then rapidly dissected out and placed in an ice-cold solution protective sucrose solution containing (in mM): 50 sucrose, 92 NaCl, 15 D-Glucose, 26 NaHCO3, 5 KCl, 1.25 NaH2PO4, 0.5 CaCl2, 7 MgSO4, 1 kynurenic acid, and bubbled with 5% CO2/95% O2. The meninges, dura, and dorsal and ventral roots were then removed from the lumbar region of the spinal cord under a dissecting microscope. The “cleaned” lumbar region of the spinal cord was glued to the vibratome stage and immediately immersed in ice cold, bubbled, sucrose solution. For current-clamp recordings, 300 to 350 μm parasagittal slices were cut to preserve the dendritic arbour of lamina I neurons, while 350 to 400 μm transverse slices were prepared for voltage-clamped […] channel recordings. Slices were allowed to recover for 1 hour at 35° C. in Ringer solution containing (in mM): 125 NaCl, 20 D-Glucose, 26 NaHCO3, 3 KCl, 1.25 NaH2PO4, 2 CaCl2, 1 MgCl2, 1 kynurenic acid, 0.1 picrotoxin, bubbled with 5% CO2/95% O2. The slice recovery chamber was then returned to room temperature (20 to 22° C.) and all recordings were performed at this temperature.
Neurons were visualized using IR-DIC optics (Zeiss Axioskop 2 FS plus, Gottingen, Germany), and neurons from lamina I and the outer layer of lamina II were selected based on their location relative to the substantia gelatinosa layer. Neurons were patch-clamped using borosilicate glass patch pipettes with resistances of 3 to 6 MΩ. Current-clamp recordings of lamina I/II neurons in the intact slice, the external recording solution was the above Ringer solution, while the internal patch pipette solution contained (in mM): 140 KGluconate, 4 NaCl, 10 HEPES, 1 EGTA, 0.5 MgCl2, 4 MgATP, 0.5 Na2GTP, adjusted to pH 7.2 with 5 M KOH and to 290 mOsm with D-Mannitol (if necessary). Only tonic firing neurons were selected for current-clamp experiments, while phasic, delayed onset and single spike neurons were discarded (22). Recordings were digitized at 50 kHz and low-pass filtered at 2.4 kHz.

mice on rotarod = experiment: Mouse rotarod assay (minimal muscular or neurological impairment); type: in vivo
Description: To assess a compound's undesirable side effects (toxicity), animals were monitored for overt signs of impaired neurological or muscular function. In mice, the rotarod procedure (Dunham and Miya, J. Am. Pharmacol. Assoc. 46:208-209 (1957)) is used to disclose minimal muscular or neurological impairment (MMI). When a mouse is placed on a rod that rotates at a speed of 6 rpm, the animal can maintain its equilibrium for long periods of time. The animal is considered toxic if it falls off this rotating rod three times during a 1-min period.

[5] = system: seizures induced by 6 Hz corneal stimulation in CF1 mice; experiment: 6 Hz psychomotor seizure model of partial epilepsy; type: in vivo, mouse; design: Epilepsy 6 Hz (% protected): concentration or dose not given beside the values; details: 32 mA
Description: Compounds were evaluated for the protection against seizures induced by a 6 Hz, 0.2 ms rectangular pulse width of 3 s duration, at a stimulus intensity of 32 mA (CC97) applied to the cornea of male CF1 mice (20-30 g) according to procedures described by Barton et al, “Pharmacological Characterization of the 6 Hz Psychomotor Seizure Model of Partial Epilepsy,” Epilepsy Res. 47(3):217-27 (2001). Seizures are characterised by the expression of one or more of the following behaviours: stun, forelimb clonus, twitching of the vibrissae and Straub-tail immediately following electrical stimulation.

[6] = biological target: T2, CaV3.2 T-type Ca2+ channels expressed in HEK cells (Homo sapiens, UniProt O95180); experiment: CaV3.2 voltage-clamp electrophysiological assay (fast and slow inactivation); type: cell-based
T2 construct: expressed in transfected cells; host or cells: HEK cells
T2 sequence (O95180 whole entry): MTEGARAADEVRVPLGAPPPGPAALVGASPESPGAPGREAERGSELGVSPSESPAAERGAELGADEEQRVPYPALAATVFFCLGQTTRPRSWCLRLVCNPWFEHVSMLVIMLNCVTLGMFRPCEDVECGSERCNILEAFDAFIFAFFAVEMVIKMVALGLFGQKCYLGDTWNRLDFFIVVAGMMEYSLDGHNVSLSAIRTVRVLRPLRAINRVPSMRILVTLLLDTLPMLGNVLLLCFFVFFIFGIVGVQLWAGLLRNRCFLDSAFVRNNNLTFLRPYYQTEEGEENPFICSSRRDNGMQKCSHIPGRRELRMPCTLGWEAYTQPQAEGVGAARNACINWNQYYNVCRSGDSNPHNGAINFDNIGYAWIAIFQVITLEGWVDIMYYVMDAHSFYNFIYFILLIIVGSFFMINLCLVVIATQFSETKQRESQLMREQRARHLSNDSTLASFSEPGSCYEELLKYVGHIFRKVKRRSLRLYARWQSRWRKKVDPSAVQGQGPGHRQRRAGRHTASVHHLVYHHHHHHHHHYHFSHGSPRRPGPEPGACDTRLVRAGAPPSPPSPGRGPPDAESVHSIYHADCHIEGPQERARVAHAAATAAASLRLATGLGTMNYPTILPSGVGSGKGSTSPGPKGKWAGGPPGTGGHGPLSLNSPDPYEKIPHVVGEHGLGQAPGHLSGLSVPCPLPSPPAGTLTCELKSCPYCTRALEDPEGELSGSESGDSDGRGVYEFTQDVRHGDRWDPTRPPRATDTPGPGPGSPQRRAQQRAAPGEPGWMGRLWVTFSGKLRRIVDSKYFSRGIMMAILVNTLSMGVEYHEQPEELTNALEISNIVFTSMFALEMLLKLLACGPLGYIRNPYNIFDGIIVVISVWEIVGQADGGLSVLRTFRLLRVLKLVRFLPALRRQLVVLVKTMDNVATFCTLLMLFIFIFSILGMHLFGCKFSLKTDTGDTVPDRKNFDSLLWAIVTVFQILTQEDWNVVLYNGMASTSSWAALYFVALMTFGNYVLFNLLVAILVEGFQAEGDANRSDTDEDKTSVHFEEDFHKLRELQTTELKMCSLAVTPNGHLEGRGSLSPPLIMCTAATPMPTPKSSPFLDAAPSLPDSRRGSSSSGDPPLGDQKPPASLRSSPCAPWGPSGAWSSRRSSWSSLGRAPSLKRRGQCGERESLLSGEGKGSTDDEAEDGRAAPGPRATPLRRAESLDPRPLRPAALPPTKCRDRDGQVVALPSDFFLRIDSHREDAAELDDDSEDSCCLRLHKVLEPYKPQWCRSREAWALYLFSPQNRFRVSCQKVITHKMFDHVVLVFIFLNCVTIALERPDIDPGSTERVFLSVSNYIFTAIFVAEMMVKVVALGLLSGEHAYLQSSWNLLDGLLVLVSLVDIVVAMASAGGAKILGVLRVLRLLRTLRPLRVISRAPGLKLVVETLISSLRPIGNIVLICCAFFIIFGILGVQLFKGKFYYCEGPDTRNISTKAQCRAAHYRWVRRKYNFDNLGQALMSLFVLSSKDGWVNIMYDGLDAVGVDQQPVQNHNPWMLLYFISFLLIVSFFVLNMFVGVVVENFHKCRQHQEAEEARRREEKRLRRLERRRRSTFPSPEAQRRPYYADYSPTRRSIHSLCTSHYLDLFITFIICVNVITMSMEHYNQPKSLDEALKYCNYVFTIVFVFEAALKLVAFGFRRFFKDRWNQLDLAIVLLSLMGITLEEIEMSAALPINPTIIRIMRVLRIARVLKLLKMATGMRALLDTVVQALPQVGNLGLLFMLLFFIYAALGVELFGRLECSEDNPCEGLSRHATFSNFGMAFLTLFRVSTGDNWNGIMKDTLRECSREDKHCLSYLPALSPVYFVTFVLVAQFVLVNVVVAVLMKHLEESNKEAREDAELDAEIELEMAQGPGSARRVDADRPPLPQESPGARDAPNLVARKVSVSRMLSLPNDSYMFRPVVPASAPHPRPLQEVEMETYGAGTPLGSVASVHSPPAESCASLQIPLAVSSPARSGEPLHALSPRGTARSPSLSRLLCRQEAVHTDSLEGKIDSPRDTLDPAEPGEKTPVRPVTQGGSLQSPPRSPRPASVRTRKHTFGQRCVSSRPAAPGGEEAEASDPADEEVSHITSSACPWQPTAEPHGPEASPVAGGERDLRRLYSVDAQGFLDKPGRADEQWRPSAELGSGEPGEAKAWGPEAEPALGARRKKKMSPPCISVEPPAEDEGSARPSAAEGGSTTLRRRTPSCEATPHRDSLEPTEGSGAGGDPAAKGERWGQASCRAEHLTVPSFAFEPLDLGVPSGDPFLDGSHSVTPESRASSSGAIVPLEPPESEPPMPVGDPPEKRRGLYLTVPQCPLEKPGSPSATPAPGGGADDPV
Source text: Prior to recording currents from CaV3.2 T-type Ca^2+ channels expressed in HEK cells, the culture media was replaced with extracellular solution (ECS) containing (in mM): 142 CsCl, 10 D-glucose, 2 CaCl2, 1 MgCl2, 10 HEPES, pH adjusted to 7.4 with CsOH. Borosilicate glass patch pipettes, pulled on a P-97 micropipette puller (Sutter Instruments, Novato, Calif.) with typical resistances of 2-4 MW, were backfilled with intracellular solution containing (in mM): 126.5 Cs-methanesulphonate, 2 MgCl2, 10 HEPES, 11 EGTA, 2 Na-ATP, pH adjusted to 7.3 CsOH. […] were recorded in the whole-cell configuration at room temperature (˜21° C.) using an Axopatch 200B (Molecular Devices, Sunnyvale, Calif.) patch-clamp amplifier. Recordings were low-pass filtered at 1 kHz (−3 dB 4-pole Bessel filter), digitized at 2 kHz with a Digidata 1322A interface (Molecular Devices), and acquired using pClamp 9.2 (Molecular Devices). No leak subtraction was used. Test compounds, prepared as 30 mM stock solutions in DMSO and diluted in extracellular buffer, were applied through a gravity driven multi-barrelled array of capillaries (24 gauge) connected to reservoirs controlled by solenoid valves. The effects of compounds on CaV3.2 slow and fast inactivation were evaluated using four different voltage protocols. The voltage dependence of fast and slow channel inactivation was examined using a two pulse protocol. Data were analyzed and fitted using OriginPro v.7.5 (OriginLab, Northampton, Mass.) software.

[7] = voltage-dependence of half inactivation, HEK cells, whole-cell

SMILES: O=C1CN(C(=O)CNc2cc(F)cc(C(F)(F)F)c2)CCN1 [Compound 11, 4-(2-(3-fluoro-5-(trifluoromethyl)phenylamino)acetyl)piperazin-2-one]
Rat SNL Tactile Allodynia (% Antiallodynia) ([2]; 1 hour): 9%
Rat SNL Tactile Allodynia (% Antiallodynia) ([2]; 2 hours): 4%
Rat SNL Tactile Allodynia (% Antiallodynia) ([2]; 4 hours): 1%

SMILES: O=C1CNCCN1C(=O)CNc1cc(F)cc(F)c1 [Compound 3, 1-(2-(3,5-difluorophenylamino)acetyl)piperazin-2-one]
Rat SNL Tactile Allodynia (% Antiallodynia) ([2]; 1 hour): 1%
Rat SNL Tactile Allodynia (% Antiallodynia) ([2]; 4 hours): 4%

SMILES: CC1(C)C(=O)NCCN1C(=O)CNc1cc(C(F)(F)F)cc(C(F)(F)F)c1 [Compound 12, 4-(2-(3,5-bis(trifluoromethyl)phenylamino)acetyl)-3,3-dimethylpiperazin-2-one]
Rat SNL Tactile Allodynia (% Antiallodynia) ([2]; 1 hour): 9%
Rat SNL Tactile Allodynia (% Antiallodynia) ([2]; 2 hours): 11%
Rat SNL Tactile Allodynia (% Antiallodynia) ([2]; 4 hours): 42%

SMILES: O=C(CC1CCNCC1)Nc1cc(C(F)(F)F)cc(C(F)(F)F)c1 [Compound 19, N-(3,5-bis(trifluoromethyl)phenyl)-2-(piperidin-4-yl)acetamide]
Rat SNL Tactile Allodynia (% Antiallodynia) ([2]; 1 hour): 47%
Rat SNL Tactile Allodynia (% Antiallodynia) ([2]; 2 hours): 39%
Rat SNL Tactile Allodynia (% Antiallodynia) ([2]; 4 hours): 32%
% Spike Change (Mean; % change from control) [4]: −30.3%
% Impaired (mice on rotarod; 0.25 hr): 0%
% Impaired (mice on rotarod; 0.5 hr): 75%
% Impaired (mice on rotarod; 1 hr): 100%
% Impaired (mice on rotarod; 2 hr): 100%
% Impaired (mice on rotarod; 4 hr): 100%
Epilepsy 6 Hz (% protected) ([5]; 0.25 hr): 100%
Epilepsy 6 Hz (% protected) ([5]; 0.5 hr): 100%
Epilepsy 6 Hz (% protected) ([5]; 1 hr): 100%
Epilepsy 6 Hz (% protected) ([5]; 2 hr): 100%
Epilepsy 6 Hz (% protected) ([5]; 4 hr): 0%

SMILES: O=C(CN1CCNCC1=O)Nc1cc(F)c(F)cc1F [Compound 2, 2-(2-oxopiperazin-1-yl)-N-(2,4,5-trifluorophenyl)acetamide]
Fraction of current recovered at 5.1 s interval ([6]; 5.1 s interval): 0.98
Fraction current remaining at −40 mV ([6]; at −40 mV): 0.58
V1/2 fast inactivation [6, 7]: −65 mV
V1/2 slow inactivation [6, 7]: −80 mV

Now from value to compound, other results behind:

Dose Normalized AUC [1]: 1,192 nM*h
Dose Normalized Cmax [1]: 355 nM
Tmax [1]: 72 min
Fraction current remaining ([3]; concentration tested 10 μM): 0.91
Fraction current remaining ([3]; concentration tested 100 μM): 0.74
SMILES: O=C1CN(C(=O)CNc2cc(C(F)(F)F)cc(C(F)(F)F)c2)CCN1 [Compound 10, 4-(2-(3,5-bis(trifluoromethyl)phenylamino)acetyl)piperazin-2-one]
Rat SNL Tactile Allodynia (% Antiallodynia) ([2]; 1 hour): 10%
Rat SNL Tactile Allodynia (% Antiallodynia) ([2]; 2 hours): 13%
Rat SNL Tactile Allodynia (% Antiallodynia) ([2]; 4 hours): 15%

Dose Normalized AUC [1]: 458 nM·h
Dose Normalized Cmax [1]: 172 nM
Tmax [1]: 40.2 min
SMILES: CC1(C)CN(CC(=O)Nc2cc(C(F)(F)F)cc(C(F)(F)F)c2)C(=O)CN1 [Compound 13, N-(3,5-bis(trifluoromethyl)phenyl)-2-(5,5-dimethyl-2-oxopiperazin-1-yl)acetamide]
Rat SNL Tactile Allodynia (% Antiallodynia) ([2]; 1 hour): 16%
Rat SNL Tactile Allodynia (% Antiallodynia) ([2]; 2 hours): 8%
Rat SNL Tactile Allodynia (% Antiallodynia) ([2]; 4 hours): 5%
Anti-allodynia in rat SNL tactile allodynia (in words) ([2]; at 60 minutes compared to baseline and post-SNL): significant anti-allodynia

Fraction current remaining ([3]; concentration tested 30 μM): 0.91
SMILES: O=C(NCCN1CCNCC1=O)c1cc(F)cc(C(F)(F)F)c1 [Compound 23, 3-fluoro-N-(2-(2-oxopiperazin-1-yl)ethyl)-5-(trifluoromethyl)benzamide]

Fraction current remaining ([3]; concentration tested 30 μM): 0.87
SMILES: O=C(CN1CCNCC1=O)NCc1cc(C(F)(F)F)cc(C(F)(F)F)c1 [Compound 20, N-(3,5-bis(trifluoromethyl)benzyl)-2-(2-oxopiperazin-1-yl)acetamide]

— patent publication US20120220603A1, “SUBSTITUTED HETEROCYCLIC DERIVATIVES FOR THE TREATMENT OF PAIN AND EPILEPSY” (ZALICUS PHARMACEUTICALS LTD., priority 2009, published 2012)
